Data reported in ChEMBL document CHEMBL1136664, “N-Phenyl-N-purin-6-yl ureas: the design and synthesis of p38alpha MAP kinase inhibitors” (Bioorg Med Chem Lett, 2003).
pIC50: −log10 of the molar value. Values after ≈ are worked out from the molar mass of the structure shown.

Tested on: not listed separately
Assay: Aqueous solubility at pH 7.4
Format: physicochemical

solubility [µM]	SMILES
> 20	CN(C)CCn1cnc2c(N(C(N)=O)c3c(F)cccc3F)nc(-c3ccccc3F)nc21
1 (≈ 0.398 µg/mL)	Cn1cnc2c(N(C(N)=O)c3c(F)cccc3F)nc(-c3ccccc3F)nc21

Target: Mitogen-activated protein kinase 14 (Homo sapiens, UniProt Q16539)
Assay: Inhibition of human MAP p38-alpha kinase in vitro.

Sequence of Mitogen-activated protein kinase 14 (Q16539 whole entry): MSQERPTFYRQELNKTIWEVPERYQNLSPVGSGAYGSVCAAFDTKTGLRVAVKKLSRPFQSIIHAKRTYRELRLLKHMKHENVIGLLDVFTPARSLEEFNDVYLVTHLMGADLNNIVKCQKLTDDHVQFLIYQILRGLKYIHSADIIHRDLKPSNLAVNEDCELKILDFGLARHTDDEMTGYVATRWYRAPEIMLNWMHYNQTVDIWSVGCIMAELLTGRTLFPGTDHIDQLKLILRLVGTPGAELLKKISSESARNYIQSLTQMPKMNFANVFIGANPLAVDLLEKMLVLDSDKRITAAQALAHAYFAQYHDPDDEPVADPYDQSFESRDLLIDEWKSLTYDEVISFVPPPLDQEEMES

SMILES	pIC50
NC(=O)N(c1c(F)cccc1F)c1nc(-c2ccccc2F)nc2c1ncn2Cc1ccccc1	7.80
Cc1ccc(-c2nc(N(C(N)=O)c3c(F)cccc3F)c3ncn(C)c3n2)cc1	5.68
Cn1cnc2c(N(C(N)=O)c3c(F)cccc3F)nc(-c3cc(F)cc(F)c3)nc21	< 4.78
Cn1cnc2c(N(C(N)=O)c3c(F)cccc3F)nc(-c3ccc(F)cc3)nc21	6.00
Cn1cnc2c(N(C(N)=O)c3c(F)cccc3F)nc(-c3cccc(Cl)c3)nc21	6.26
Cn1cnc2c(N(C(N)=O)c3c(F)cccc3F)nc(-c3ccccc3F)nc21	7.44
Cc1cc(F)ccc1-c1nc(N(C(N)=O)c2ccc(Cl)cc2)c2ncn(C)c2n1	5.01
Cn1cnc2c(N(C(N)=O)c3c(F)cccc3F)nc(-c3ccccc3Cl)nc21	7.52

Further lines, results first:

pIC50	SMILES
6.46	Cc1cccc(-c2nc(N(C(N)=O)c3c(F)cccc3F)c3ncn(C)c3n2)c1
6.79	Cc1cc(F)ccc1-c1nc(N(C(N)=O)c2c(F)cc(F)cc2F)c2ncn(C)c2n1
5.85	Cc1cc(F)ccc1-c1nc(N(C(N)=O)c2ccc(F)cc2)c2ncn(C)c2n1
6.85	Cc1ccccc1-c1nc(N(C(N)=O)c2c(F)cccc2F)c2ncn(C)c2n1
6.91	Cc1cc(F)ccc1-c1nc(N(C(N)=O)c2ccccc2Cl)c2ncn(C)c2n1
6.29	Cn1cnc2c(N(C(N)=O)c3c(F)cccc3F)nc(-c3ccccc3)nc21
< 4.78	Cc1cc(F)ccc1-c1nc(N(C(N)=O)c2ccccc2)c2ncn(C)c2n1
7.59	Cn1cnc2c(N(C(N)=O)c3c(F)cccc3F)nc(-c3ccc(F)cc3F)nc21
6.89	Cc1cc(F)ccc1-c1nc(N(C(N)=O)c2c(F)cccc2F)c2ncn(C)c2n1
5.30	Cn1cnc2c(N(C(N)=O)c3c(F)cccc3F)nc(-c3cccc(F)c3)nc21
< 4.78	COc1ccccc1N(C(N)=O)c1nc(-c2ccc(F)cc2C)nc2c1ncn2C
7.09	CN(C)CCn1cnc2c(N(C(N)=O)c3c(F)cccc3F)nc(-c3ccccc3F)nc21
